Holding throughout (experiment): NCI anticancer screen, dose series, 48 h
In experiment [1] the test system is SW-620.
For experiment [2], the system named is HCC 2998.
The subject of experiment [3] is MDA-MB-231.
For experiment [4], the system named is SN12C.
For experiment [5], the system named is NCI-H226.
The subject of experiment [6] is HT-29.
For experiment [7], the system named is HL-60.
For experiment [8], the system named is SR.
In experiment [9] the test system is SNB-75.
Experiment [10] has as its system NCI-H522.
Experiment [11] deals with SK-MEL-2.
Experiment [12] deals with A549.
Experiment [13] deals with HCT-116.
Experiment [14] relates to Malme-3M.
Experiment [15] deals with Hs-578T.
For experiment [16], the system named is UO-31.
The test system of experiment [17] is HOP-92.

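Cells were grown in 96-well plates and exposed to each compound for 48 hours at five concentrations; endpoints were interpolated linearly between bracketing concentrations, or set to the highest concentration if not reached. GI50 = concentration required for 50% inhibition of growth.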 The source made the active and inactive calls. Rule as the data show it: active = GI50 up to about 1.1 µM and inactive = higher. Some results are limits rather than exact numbers.

With `CC1=CC(=O)C(C(O)(C(F)(F)F)C(F)(F)F)C(C)(C)C1` (configuration not stated), the GI50 in experiment [1], in experiment [2], in [3], in experiment [4], in [5] and in [6] was > 10 µM (inactive) throughout. Besides, the GI50 in experiment [7], in [8], in experiment [9], in [10], in experiment [11] and in experiment [12] was > 10 µM (inactive) in each case. Besides, the GI50 in experiment [13], in experiment [14], in [15] and in experiment [16] was > 10 µM (inactive) each time.
In the case of `OC(Cc1cnnc2ccccc12)C(Cl)(Cl)Cl` (configuration not stated), the GI50 in experiment [1], in [17], in experiment [2], in experiment [3], in [4] and in [5] was > 10 µM (inactive) throughout. Further, the GI50 in experiment [6], in experiment [7], in [8], in [9], in experiment [10] and in experiment [11] was > 10 µM (inactive) in each case. The GI50 in [12], in experiment [13], in experiment [14], in [15] and in [16] was > 10 µM (inactive) each time.
Take `CCOC(=O)C1C(c2ccc(O)c(OC)c2)c2c(n[nH]c2O)CC1(C)O` (configuration not stated): the GI50 in experiment [1], in [17], in [2], in [3], in [4] and in [6] was > 100 µM (inactive) throughout. Moreover, the GI50 in experiment [7], in [8], in experiment [9], in experiment [10], in experiment [11] and in experiment [12] was > 100 µM (inactive) throughout. Besides, the GI50 in [13], in experiment [14], in experiment [15] and in experiment [16] was > 100 µM (inactive) throughout.
In the case of `COc1ccc(-c2cc(-c3ccc(Nc4ccnc5cc(Cl)ccc45)cc3)[nH]c(=O)c2C#N)c2ccccc12`, the GI50 in [1] was 3.51 µM (inactive); in experiment [17] it was 3.84 µM (inactive); in [2] it was 5.51 µM (inactive); in [3] it was 3.29 µM (inactive); in experiment [4] it was 11.4 µM (inactive); in [5], > 100 µM (inactive). Also, the GI50 in [6] was 2 µM (inactive); in experiment [7] it was 3.03 µM (inactive); in [8], 0.413 µM (active); in experiment [9] it was 3.2 µM (inactive); in [10], 1.79 µM (inactive); in experiment [11] it was 14.1 µM (inactive). The GI50 in [12] was 18.1 µM (inactive); in experiment [13], 2.16 µM (inactive); in experiment [14] it was 2.23 µM (inactive); in experiment [15], 2.62 µM (inactive); in experiment [16], 5.32 µM (inactive).
For `CS/C(C#N)=C(\C#N)SC`, the GI50 in experiment [1] is 4.47 µM (inactive); in experiment [2], 2.99 µM (inactive); in [3], 24.7 µM (inactive); in experiment [4] it was 11.2 µM (inactive); in experiment [5], 2.55 µM (inactive); in [6] it was 16.1 µM (inactive). The GI50 in experiment [7] was 1.79 µM (inactive); in experiment [8], 1.24 µM (inactive); in experiment [9], 52.2 µM (inactive); in experiment [10] it was 1.42 µM (inactive); in experiment [11] it was 12.4 µM (inactive); in experiment [12] it was 30.4 µM (inactive). In addition, the GI50 is 20.9 µM (inactive) in [13], 11.4 µM (inactive) in experiment [14], 31.8 µM (inactive) in [15] and 4.18 µM (inactive) in [16].
With `N#C[C@](CO)(NC(=O)OCc1ccccc1)C(F)F`, the GI50 in [1], in experiment [17], in [2], in [3], in experiment [5] and in experiment [6] was > 100 µM (inactive) each time. Moreover, the GI50 in experiment [7], in [8], in experiment [9], in experiment [10], in experiment [11] and in experiment [12] was > 100 µM (inactive) throughout. The GI50 in [13], in [14], in [15] and in experiment [16] was > 100 µM (inactive) throughout.
For the compound `O=C(O)Cc1cccc2c(=O)c3ccccc3oc12`, the GI50 is > 100 µM (inactive) in [1]; > 100 µM (inactive) in [17]; 22 µM (inactive) in experiment [2]; > 100 µM (inactive) in [3]; > 100 µM (inactive) in [4]; > 100 µM (inactive) in experiment [5]. In addition, the GI50 in experiment [6] was > 100 µM (inactive); in experiment [7] it was > 100 µM (inactive); in experiment [8], > 100 µM (inactive); in experiment [10] it was 48.5 µM (inactive); in [11], 27.3 µM (inactive); in experiment [12], > 100 µM (inactive). Also, the GI50 in experiment [13], in [14], in [15] and in experiment [16] was > 100 µM (inactive) each time.
For `CCOC(=O)N1CCC2(CC1)C[C@](Sc1ccccc1)(C(C)=O)[C@H](C)O2`, the GI50 in experiment [1], in experiment [17], in [2], in experiment [3], in experiment [5] and in experiment [6] was > 100 µM (inactive) each time. Moreover, the GI50 in experiment [7], in [8], in [9], in experiment [10], in experiment [11] and in experiment [12] was > 100 µM (inactive) in each case. The GI50 in experiment [14], in experiment [15] and in experiment [16] was > 100 µM (inactive) throughout.
Turning to `COC(=O)CC[N+]1([O-])CC1`, the GI50 in experiment [1], in experiment [17], in [2], in [3], in [4] and in experiment [5] was > 100 µM (inactive) in each case. Moreover, the GI50 in experiment [6], in experiment [7], in [8], in [9], in experiment [12] and in experiment [13] was > 100 µM (inactive) each time. The GI50 in [14], in [15] and in experiment [16] was > 100 µM (inactive) in each case.
Consider `Cn1cc(NC(=O)Nc2cc(C(=O)Nc3cc(C(=O)Nc4cc(S(=O)(=O)O)c5cc(S(=O)(=O)O)cc(S(=O)(=O)O)c5c4)n(C)c3)n(C)c2)cc1C(=O)Nc1cc(C(=O)Nc2cc(S(=O)(=O)O)c3cc(S(=O)(=O)O)cc(S(=O)(=O)O)c3c2)n(C)c1`, for which the GI50 is > 100 µM (inactive) in experiment [1]; 62.7 µM (inactive) in [17]; > 100 µM (inactive) in experiment [2]; > 100 µM (inactive) in experiment [3]; > 100 µM (inactive) in experiment [4]; > 100 µM (inactive) in experiment [5]. In addition, the GI50 in [6] is > 100 µM (inactive); in [7], > 100 µM (inactive); in [8], > 100 µM (inactive); in [9] it was 50.1 µM (inactive); in experiment [10], > 100 µM (inactive); in experiment [12], > 100 µM (inactive). Also, the GI50 in [13] was > 100 µM (inactive); in experiment [14], > 100 µM (inactive); in experiment [15] it was > 100 µM (inactive); in experiment [16], 78.5 µM (inactive).
`Cc1cc(=O)[nH]c2cc(NC(=O)C(C)NC(=O)C(C)NC(=O)C(C)NC(=O)OC(C)(C)C)ccc12` (configuration not stated): the GI50 in experiment [1], in [17], in experiment [2], in [3], in experiment [4] and in experiment [5] was > 15 µM (inactive) throughout. The GI50 in experiment [6], in [7], in experiment [8], in [9], in experiment [10] and in experiment [11] was > 15 µM (inactive) in each case. Further, the GI50 in experiment [12], in experiment [13], in experiment [15] and in [16] was > 15 µM (inactive) each time.
On to `N#Cc1ccc(C2ON=C(c3ccccc3)N2C23CC4CC(CC(C4)C2)C3)cc1` (configuration not stated), for which the GI50 in experiment [1] is > 10 µM (inactive); in [17], > 10 µM (inactive); in experiment [2], > 10 µM (inactive); in experiment [3], > 10 µM (inactive); in experiment [4] it was > 10 µM (inactive); in experiment [5] it was 6.76 µM (inactive). Moreover, the GI50 in experiment [6] is > 10 µM (inactive); in experiment [7], 4.05 µM (inactive); in [8] it was 3.85 µM (inactive); in [9], > 10 µM (inactive); in experiment [10] it was > 10 µM (inactive); in experiment [11], > 10 µM (inactive). Further, the GI50 in experiment [12], in [13], in [14] and in [15] was > 10 µM (inactive) each time.
